Data reported in patent US5420261A, “Glycosides of 3'-deoxyaquayamycin antibiotics” (Schering Corporation, priority 1992, dated 1995).
Values after ≈ are worked out from the molar mass of the structure shown. Where two headings read alike, the source gives them in different places.

Legend:
[1] = test system: Dermatophytes (seven species); assay: In vitro antifungal activity in Sabouraud dextrose broth, dermatophytes (seven species); type: cell-based; details: read-out: GEOMETRIC MEAN MIC
Mycelial = assay: In vitro activity in Eagles Medium Essential Medium (EMEM), Mycelial; type: cell-based; details: read-out: GEOMETRIC MEAN MIC
Candida (8 species) = assay: In vitro antifungal activity in Sabouraud dextrose broth, Candida (8 species); type: cell-based; details: read-out: GEOMETRIC MEAN MIC
C. abicans = assay: Bioautography after thin layer chromatography, C. abicans; type: cell-based; details: TLC in 2:2:1 chloroform: methanol: pH 3.5 acetate buffer
Excerpt: (§1) The medium employed for the fermentation contained beef extract, tryptone, yeast extract, cerelose and soluble starch as the major sources of nitrogen and carbon, respectively.

Solubility = type: physicochemical
S. aureus = assay: Bioautography after thin layer chromatography, S. aureus; type: cell-based; details: TLC in 2:2:1 chloroform: methanol: pH 3.5 acetate buffer
Excerpt: as §1

E. coli = assay: Bioautography after thin layer chromatography, E. coli; type: cell-based; details: TLC in 2:2:1 chloroform: methanol: pH 3.5 acetate buffer
Excerpt: as §1

[2] = Sabouraud Dextrose Broth Medium, Dermatophytes (seven species)
[3] = Sabouraud Dextrose Broth Medium, Candida (8 species)

| SMILES | MIC [1] [µg/mL] | MIC (Mycelial) [µg/mL] | MIC (Candida (8 species); Candida) [µg/mL] | MIC [1, 2] [µg/mL] | biological activity by bioautography (C. abicans) | solubility in dichlormethane, chloroform and dimethyl sulfoxide (Solubility) | solubility in hexane and water (Solubility) | solubility in methanol, diethyl ether and ethyl acetate (Solubility) | MIC (Candida (8 species); [3]) [µg/mL] | biological activity by bioautography (S. aureus) | biological activity by bioautography (E. coli) |
| --- | --- | --- | --- | --- | --- | --- | --- | --- | --- | --- | --- |
| COc1cccc2c1C(=O)c1c(O)c3c(c(O)c1C2=O)C[C@@](O)(C(=O)CO)C[C@@H]3O[C@H]1C[C@H](N)[C@H](O)[C@H](C)O1 [Adriamycin, reference compound] | ≥ 128 | 128 (≈ 235 µM) | ≥ 128 | – | – | – | – | – | – | – | – |
| CC1OC(OC2CCC(c3ccc4c(c3O)C(=O)C3=C(C4=O)C4(O)C(=O)CC(C)(OC5C=CC(=O)C(C)O5)CC4(O)C=C3)OC2C)C=CC1=O (stereo not drawn) [Compound 1a] | – | 78 (≈ 113 µM) | – | ≥ 5 | biologically active | soluble in dichlormethane, chloroform and dimethyl sulfoxide | insoluble in hexane and water | less soluble in methanol, diethyl ether and ethyl acetate | ≥ 43 | biologically active | biologically active |
| CC1OC(OC2(C)CC(=O)C3(O)C4=C(C=CC3(O)C2)C(=O)c2c(ccc(C3CCC(OC5CCC(O)C(C)O5)C(C)O3)c2O)C4=O)C=CC1=O (stereo not drawn) [Compound 1b] | – | 95 (≈ 137 µM) | – | ≥ 132 | biologically active | soluble in dichlormethane, chloroform and dimethyl sulfoxide | insoluble in hexane and water | less soluble in methanol, diethyl ether and ethyl acetate | ≥ 128 | biologically active | biologically active |
